Results published in patent US12171230B2, “Herbicidal compositions” (Bayer Aktiengesellschaft, priority 2018, dated 2024).
“And” between values parts separate entries of the source, which are not always exact repeats. Equal entries are not always repeated.

How the values were obtained:
Assay type in all cases: in vivo
[1] = system: Galium aparine; assay: Post-emergence herbicidal action against Galium aparine
In short: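 Greenhouse pot test: three-leaf-stage plants, three weeks from sowing, sprayed with spray-powder or emulsion-concentrate formulations at several dosages (300 to 800 l/ha water). Efficacy rated visually against untreated plants some 3 to 4 weeks later, with Colby formula giving expected combination effect.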

[2] = system: Chenopodium album; assay: Post-emergence herbicidal action against Chenopodium album
Description: When the observed efficacies exceed the formal sum total of the values of the tests with individual applications, they also exceed the expected value according to Colby, which is calculated using the formula below and is likewise regarded as an indication of synergism (cf. S. R. Colby; in Weeds 15 (1967) p. 20 to 22): E^C=A+B−([…])
Here: • A=efficacy of the active compound (A) in % at an application rate of a g a.i./ha; • B=efficacy of the active compound (B) in % at an application rate of b g a.i./ha; • E^C=expected value of the effect of the combination (A)+(B) in % at the combined application rate a+b g a.i./ha.
Seeds or rhizome pieces of mono- and dicotyledonous weeds are placed in sandy loam in pots, covered with soil and grown in a greenhouse under good growth conditions (temperature, air humidity, water supply). Three weeks after sowing, the test plants were treated at the three-leaf stage with the compositions according to the invention. The compositions according to the invention formulated as spray powders or as emulsion concentrates were sprayed onto the green plant parts in various dosages with an application rate of 300 to 800 l/ha of water (equivalent). After the test plants have been left to stand in the greenhouse under optimal growth conditions for about 3 to 4 weeks, the action of the preparations is scored visually in comparison to untreated controls. The compositions according to the invention also have good post-emergence herbicidal activity against a broad spectrum of economically important gramineous and broadleaf weeds.

[3] = system: Lolium rigidum; assay: Post-emergence herbicidal action against Lolium rigidum
In short: (§1)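 Colby-derived expected values (E^C) and the summed effects of the separate applications (E^A) accompany each rating. Active substance was dosed in grams per hectare on a 100% active-compound basis, with the rating period given as DAT.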

[4] = system: Lolium rigidum (resistant biotype); assay: Post-emergence herbicidal action against Lolium rigidum (resistant biotype)
In short: as §1

[5] = system: Phalaris minor; assay: Post-emergence herbicidal action against Phalaris minor
In short: as §1

[6] = system: Kochia scoparia; assay: Post-emergence herbicidal action against Kochia scoparia; conditions: 1.7 g of a.i./ha
From the text: (§2) The following abbreviations are used in the description and the tables that follow: • g of a.i./ha=grams of active substance (active ingredient) (=100% active compound) per hectare; • The sum total of the effects of the individual applications is reported under E^A; • expected values according to Colby are each reported under E^C.
(§3) The rating period is reported in days after application (DAT).

[7] = system: Alopecurus myosuroides; assay: Post-emergence herbicidal action against Alopecurus myosuroides
In short: as §1

[8] = system: Digitaria horizontalis; assay: Post-emergence herbicidal action against Digitaria horizontalis
From the text: as §2, §3

[9] = system: Veronica hederifolia; assay: Post-emergence herbicidal action against Veronica hederifolia
From the text: as §2, §3

[10] = system: Viola tricolor; assay: Post-emergence herbicidal action against Viola tricolor
From the text: as §2, §3

[11] = system: Abutilon theophrasti; assay: Post-emergence herbicidal action against Abutilon theophrasti
From the text: as §2, §3

[12] = (Z61) post-emergence, g of a.i./ha: 1, 270, 90, 30, 1 + 270, 1 + 90, 1 + 30

C=C[C@]1(C(=O)N[C@H]2CO[C@@H](C(=O)OC)C2)CC(c2cc(F)cc(F)c2)=NO1 (relative stereo) [Compound A3, methyl rel-(2R,4R)-4-[[(5S)-3-(3,5-difluorophenyl)-5-vinyl-4H-isoxazole-5-carbonyl]amino]tetrahydrofuran-2-carboxylate]
Herbicidal action in [%] 14 DAT against Galium aparine ([1]; 1 g of a.i./ha): 40%
Herbicidal action in [%] 28 DAT against Galium aparine ([1]; 1 g of a.i./ha): 15%
Herbicidal action in [%] 28 DAT against Galium aparine ([1]; 4 g of a.i./ha): 65%
Herbicidal action in [%] 28 DAT against Galium aparine ([1]; 4 g of a.i./ha, post-emergence): 70%
Herbicidal action against Galium aparine ([1]; 14 DAT, 1 g of a.i./ha): 40%
Herbicidal action 28 DAT against Galium aparine ([1]; 16 g of a.i./ha): 75%
Herbicidal action in [%] 28 DAT against Galium aparine ([1]; 16 g of a.i./ha): 75%
Herbicidal action in [%] 28 DAT against Galium aparine ([1]; 16 g of a.i./ha, post-emergence): 80%
Herbicidal action against Galium aparine ([1]; 28 DAT, 1 g of a.i./ha): 15%
Herbicidal action 14 DAT against Galium aparine [1, 12]: 40%
Herbicidal action 27 DAT [%] against Chenopodium album ([2]; 100 g of a.i./ha): 85%
Herbicidal action 27 DAT against Chenopodium album ([2]; g of a.i./ha: 180, 100, 100 + 180): 85%
Herbicidal action 14 DAT against Lolium rigidum ([3]; 1 g of a.i./ha): 35%
Herbicidal action 28 DAT against Lolium rigidum ([3]; 1 g of a.i./ha): 15%
Herbicidal action 28 DAT against Lolium rigidum ([3]; 4 g of a.i./ha): 50%
Herbicidal action in [%] 14 DAT against Lolium rigidum ([3]; 1 g of a.i./ha): 40%
Herbicidal action in [%] 14 DAT against Lolium rigidum ([3]; 4 g of a.i./ha): 85%
Herbicidal action in [%] 28 DAT against Lolium rigidum ([3]; 1 g of a.i./ha): 10%
Herbicidal action in [%] 28 DAT against Lolium rigidum ([3]; 4 g of a.i./ha): 70%
Herbicidal action 14 DAT against Lolium rigidum [3, 12]: 35%
Herbicidal action 14 DAT against Lolium rigidum (resistant biotype) ([4]; 1 g of a.i./ha): 15% and 30%
Herbicidal action 28 DAT against Lolium rigidum (resistant biotype) ([4]; 1 g of a.i./ha): 0%
Herbicidal action 14 DAT against Lolium rigidum (resistant biotype) ([4]; 4 g of a.i./ha): 40% and 60%
Herbicidal action in [%] 14 DAT against Lolium rigidum (resistant biotype) ([4]; 1 g of a.i./ha): 30%
Herbicidal action in [%] 14 DAT against Lolium rigidum (resistant biotype) ([4]; 4 g of a.i./ha): 60%
Herbicidal action 28 DAT against Lolium rigidum (resistant biotype) ([4]; 16 g of a.i./ha): 80%
Herbicidal action in [%] 28 DAT against Lolium rigidum (resistant biotype) ([4]; 1 g of a.i./ha): 0%
Herbicidal action in [%] 28 DAT against Lolium rigidum (resistant biotype) ([4]; 4 g of a.i./ha): 40%
Herbicidal action in [%] 28 DAT against Lolium rigidum (resistant biotype) ([4]; 16 g of a.i./ha): 80%
Herbicidal action 28 DAT against Lolium rigidum (resistant biotype) ([4]; (Z61) post-emergence, g of a.i./ha: 4, 1, 270, 90, 4 + 270, 1 + 90, 1 g of a.i./ha): 0%
Herbicidal action 28 DAT against Lolium rigidum (resistant biotype) ([4]; (Z61) post-emergence, g of a.i./ha: 4, 1, 270, 90, 4 + 270, 1 + 90, 4 g of a.i./ha): 10%
Herbicidal action 14 DAT against Phalaris minor ([5]; 1 g of a.i./ha): 10%
Herbicidal action 28 DAT against Phalaris minor ([5]; 1 g of a.i./ha): 0% and 10%
Herbicidal action 28 DAT against Phalaris minor ([5]; 4 g of a.i./ha): 70%
Herbicidal action in [%] 14 DAT against Phalaris minor ([5]; 1 g of a.i./ha): 20%
Herbicidal action in [%] 14 DAT against Phalaris minor ([5]; 4 g of a.i./ha): 85%
Herbicidal action in [%] 14 DAT against Phalaris minor ([5]; 16 g of a.i./ha): 85%
Herbicidal action 28 DAT against Phalaris minor ([5]; 16 g of a.i./ha): 40%
Herbicidal action in [%] 28 DAT against Phalaris minor ([5]; 1 g of a.i./ha): 10%
Herbicidal action in [%] 28 DAT against Phalaris minor ([5]; 16 g of a.i./ha): 85%
Herbicidal action 21 DAT against Kochia scoparia [6]: 30%
Herbicidal action 14 DAT against Alopecurus myosuroides ([7]; 1 g of a.i./ha): 15%
Herbicidal action 28 DAT against Alopecurus myosuroides ([7]; 1 g of a.i./ha): 15%
Herbicidal action 28 DAT against Alopecurus myosuroides ([7]; 4 g of a.i./ha): 50% and 60%
Herbicidal action in [%] 14 DAT against Alopecurus myosuroides ([7]; 1 g of a.i./ha): 30%
Herbicidal action in [%] 14 DAT against Alopecurus myosuroides ([7]; 4 g of a.i./ha): 75%
Herbicidal action in [%] 28 DAT against Alopecurus myosuroides ([7]; 1 g of a.i./ha): 10%
Herbicidal action in [%] 28 DAT against Alopecurus myosuroides ([7]; 4 g of a.i./ha): 60%
Herbicidal action 28 DAT against Digitaria horizontalis ([8]; (Z61) post-emergence, g of a.i./ha: 200, 100, 100 + 200): 96%
Herbicidal action 28 DAT against Digitaria horizontalis ([8]; A3/Asulam, first sub-table, post-emergence, g of a.i./ha by row: 720, 100, 100 + 720): 96%
Herbicidal action 28 DAT against Digitaria horizontalis ([8]; A3/Asulam, second sub-table, post-emergence, g of a.i./ha by row: 720, 100, 100 + 720): 87%
Herbicidal action in [%] 14 DAT against Veronica hederifolia ([9]; 1 g of a.i./ha): 10%
Herbicidal action in [%] 14 DAT against Veronica hederifolia ([9]; 4 g of a.i./ha): 30%
Herbicidal action 14 DAT against Veronica hederifolia ([9]; 16 g of a.i./ha): 40%
Herbicidal action 14 DAT against Veronica hederifolia ([9]; g of a.i./ha: 16, 270, 16 + 270): 40%
Herbicidal action 14 DAT against Viola tricolor ([10]; 1 g of a.i./ha): 50%
Herbicidal action 28 DAT against Viola tricolor ([10]; 1 g of a.i./ha): 15%
Herbicidal action 28 DAT against Viola tricolor ([10]; 4 g of a.i./ha): 30%
Herbicidal action 14 DAT against Viola tricolor ([10]; 16 g of a.i./ha): 85%
Herbicidal action 28 DAT against Viola tricolor ([10]; 16 g of a.i./ha): 20%
Herbicidal action 28 DAT against Viola tricolor ([10]; (Z61) post-emergence, g of a.i./ha: 16, 1, 30, 16 + 30, 1 + 30, 1 g of a.i./ha): 15%
Herbicidal action 28 DAT against Viola tricolor ([10]; (Z61) post-emergence, g of a.i./ha: 16, 1, 30, 16 + 30, 1 + 30, 16 g of a.i./ha): 20%
Herbicidal action 21 DAT [%] against Abutilon theophrasti ([11]; 1.7 g of a.i./ha): 10%
Herbicidal action 21 DAT against Abutilon theophrasti ([11]; 1.7 g of a.i./ha): 0%
Herbicidal action 21 DAT against Abutilon theophrasti ([11]; 5 g of a.i./ha): 30%
Herbicidal action 21 DAT [%] against Abutilon theophrasti ([11]; 15 g of a.i./ha): 35%
